# Measurements published in article PMC8398451, “Molecular Engineering of Curcumin, an Active Constituent of Curcuma longa L. (Turmeric) of the Family Zingiberaceae with Improved Antiproliferative Activity” (Plants, 2021).
# Legend:
# [1] = test system: HOP-62; assay: NCI antiproliferative SRB assay, Non-Small Cell Lung Cancer panel; format: cell-based, Human; settings: one dose 10 µM
# [2] = test system: SF-295; assay: NCI antiproliferative SRB assay, CNS Cancer panel; format: cell-based, Human; settings: one dose 10 µM
# [3] = test system: OVCAR-3; assay: NCI antiproliferative SRB assay, Ovarian Cancer panel; format: cell-based, Human; settings: one dose 10 µM
# [4] = test system: Melanoma cell line panel; assay: NCI antiproliferative assay, panel summary; format: cell-based, Human; settings: 10 µM
# [5] = test system: NCI-H522; assay: NCI antiproliferative SRB assay, Non-Small Cell Lung Cancer panel; format: cell-based, Human; settings: one dose 10 µM
# [6] = test system: HCT-15; assay: NCI antiproliferative SRB assay, Colon Cancer panel; format: cell-based, Human; settings: one dose 10 µM
# [7] = test system: HL-60(TB); assay: cells; format: cell-based; settings: one dose 10 µM
# [8] = test system: Prostate Cancer cell line panel; assay: NCI antiproliferative assay, panel summary; format: cell-based, Human; settings: 10 µM
# [9] = test system: SNB-75; assay: NCI antiproliferative SRB assay, CNS Cancer panel; format: cell-based, Human; settings: one dose 10 µM
# [10] = test system: TK-10; assay: NCI antiproliferative SRB assay, Renal Cancer panel; format: cell-based, Human; settings: one dose 10 µM
# [11] = test system: A498; assay: as above; format: cell-based, Human; settings: one dose 10 µM
# [12] = test system: SN 12C; assay: as above; format: cell-based, Human; settings: one dose 10 µM
# [13] = test system: NCI-H460; assay: NCI antiproliferative SRB assay, Non-Small Cell Lung Cancer panel; format: cell-based, Human; settings: one dose 10 µM
# [14] = test system: SW-620; assay: NCI antiproliferative SRB assay, Colon Cancer panel; format: cell-based, Human; settings: one dose 10 µM
# [15] = test system: ACHN; assay: NCI antiproliferative SRB assay, Renal Cancer panel; format: cell-based, Human; settings: one dose 10 µM
# [16] = test system: HCC-2998; assay: NCI antiproliferative SRB assay, Colon Cancer panel; format: cell-based, Human; settings: one dose 10 µM
# [17] = test system: 786–0; assay: NCI antiproliferative SRB assay, Renal Cancer panel; format: cell-based, Human; settings: one dose 10 µM
# [18] = test system: EKVX; assay: NCI antiproliferative SRB assay, Non-Small Cell Lung Cancer panel; format: cell-based, Human; settings: one dose 10 µM
# [19] = test system: NCI-H226; assay: as above; format: cell-based, Human; settings: one dose 10 µM
# [20] = test system: 60 NCI cancer cell lines; assay: NCI antiproliferative assay, summary over all lines; format: cell-based; settings: mean over cell lines; one dose 10 µM
# [21] = test system: Leukemia cell line panel; assay: NCI antiproliferative assay, panel summary; format: cell-based, Human; settings: 10 µM
# [22] = test system: DU-145; assay: NCI antiproliferative SRB assay, Prostate Cancer panel; format: cell-based, Human; settings: one dose 10 µM
# [23] = test system: OVCAR-8; assay: NCI antiproliferative SRB assay, Ovarian Cancer panel; format: cell-based, Human; settings: one dose 10 µM
compound,measurement,setting,value
COc1ccc(/C=C/c2cc(/C=C/c3ccc(OC)c(O)c3)n(-c3cccc(Cl)c3)c(=S)n2)cc1O [3a],%GI,[1],4.94%
same,GP (growth percent),[1],95.06
same,%GI,[2],−9.94%
same,GP (growth percent),[2],109.94
same,%GI,[3],8.70%
same,GP (growth percent),[3],91.30
same,Mean % GI,[4],17.21%
same,%GI,[5],62.11%
same,GP (growth percent),[5],37.89
same,%GI,[6],6.07%
same,GP (growth percent),[6],93.93
same,%GI,[7],16.52%
same,GP (growth percent),[7],83.48
same,Mean % GI,[8],14.98%
same,%GI,[9],19.22%
same,GP (growth percent),[9],80.78
same,%GI,[10],−12.60%
same,GP (growth percent),[10],112.60
same,%GI,[11],−4.38%
same,GP (growth percent),[11],104.38
same,%GI,[12],7.39%
same,GP (growth percent),[12],92.61
same,%GI,[13],10.49%
same,GP (growth percent),[13],89.51
same,%GI,[14],10.52%
same,GP (growth percent),[14],89.48
same,%GI,[15],4.99%
same,GP (growth percent),[15],95.01
same,%GI,[16],−3.70%
same,GP (growth percent),[16],103.70
same,%GI,[17],5.38%
same,GP (growth percent),[17],94.62
same,%GI,[18],14.19%
same,GP (growth percent),[18],85.81
same,%GI,[19],1.46%
same,GP (growth percent),[19],98.54
same,Mean % GI,[20],17.68%
same,Mean GP,[20],82.32
same,Mean % GI,[21],41.39%
same,%GI,[22],19.16%
same,GP (growth percent),[22],80.84
same,%GI,[23],28.57%
same,GP (growth percent),[23],71.43
